Measured values reported in patent US8822449B2, “Substituted aminoindanes and analogs thereof, and the pharmaceutical use thereof” (Sanofi, priority 2008, dated 2014).

These molecules were tested against T1, sodium-proton exchanger of subtype 3 (NHE3) (Homo sapiens, UniProt P48764) (assay: Recovery of intracellular pH (pHi) after acidification in LAP1 cells stably expressing NHE3 (BCECF fluorescence, FLIPR)). Details: Activity range (inhibitory effect on NHE3), LAP1 cells stably expressing NHE3; pH recovery after acidification; range 1 is % inhibition at 10 μM.
T1 construct: expressed in transfected cells
T1 sequence (P48764 26-834): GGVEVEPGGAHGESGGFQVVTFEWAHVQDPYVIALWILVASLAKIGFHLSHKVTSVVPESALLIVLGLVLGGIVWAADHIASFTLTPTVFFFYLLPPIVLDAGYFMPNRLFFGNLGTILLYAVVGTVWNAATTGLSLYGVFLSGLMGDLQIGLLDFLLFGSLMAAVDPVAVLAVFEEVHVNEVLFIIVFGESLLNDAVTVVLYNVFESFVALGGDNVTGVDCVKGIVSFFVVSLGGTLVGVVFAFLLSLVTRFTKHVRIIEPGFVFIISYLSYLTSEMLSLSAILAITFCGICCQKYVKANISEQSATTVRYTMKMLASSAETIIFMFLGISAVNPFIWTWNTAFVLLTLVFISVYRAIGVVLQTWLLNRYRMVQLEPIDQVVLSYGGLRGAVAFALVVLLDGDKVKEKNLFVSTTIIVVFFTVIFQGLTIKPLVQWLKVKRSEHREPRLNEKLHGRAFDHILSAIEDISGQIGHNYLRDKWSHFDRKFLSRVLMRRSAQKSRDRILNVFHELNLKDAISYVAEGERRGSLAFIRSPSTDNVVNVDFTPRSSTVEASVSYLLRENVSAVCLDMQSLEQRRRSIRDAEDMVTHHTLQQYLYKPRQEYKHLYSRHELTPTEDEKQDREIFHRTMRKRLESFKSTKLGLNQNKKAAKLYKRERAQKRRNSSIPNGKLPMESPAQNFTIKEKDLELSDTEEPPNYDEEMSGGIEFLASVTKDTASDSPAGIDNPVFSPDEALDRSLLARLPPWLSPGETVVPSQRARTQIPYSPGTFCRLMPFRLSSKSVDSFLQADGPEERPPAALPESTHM
Type: cell-based
Work on `O=C1CCCN1c1cccc(O[C@H]2c3ccccc3C[C@@H]2N2CCCC2)c1` (racemic) [Example 255, 1-[3-(rac-trans-(1,2)-2-pyrrolidin-1-ylindan-1-yloxy)phenyl]pyrrolidin-2-one] yielded an IC50 of 1000 to 10000 nM.

Same assay, conditions: LAP1 cells stably expressing NHE3; pH recovery after acidification; range 1 is % inhibition at 10 μM; read-out: Activity range (inhibitory effect on NHE3)
`COC(=O)c1ccc(O[C@H]2c3ccccc3C[C@@H]2N2CCCC2)cc1` (racemic) [Example 467, 4-(rac-trans-(1,2)-2-pyrrolidin-1-ylindan-1-yloxy)benzoic acid methyl ester] gave an IC50 of 1000 to 10000 nM.
With `COCCc1ccc(O[C@@H]2c3ccccc3C[C@H]2N2CCC(N)C2)cc1` (mixture of isomers) [Example 342, 1-{rac-trans-(1,2)-1-[4-(2-methoxyethyl)phenoxy]indan-2-yl}pyrrolidin-3-ylamine] the IC50 was 1000 to 10000 nM.
Work on `CC(=O)Nc1cccc(O[C@H]2c3ccccc3C[C@@H]2N2CCC[C@@H](N)C2)c1` [Example 691, N-{3-[trans-(1S,2S)-2-((R)-3-aminopiperidin-1-yl)indan-1-yloxy]phenyl}acetamide] yielded an IC50 of less than 1000 nM.
With `NS(=O)(=O)c1ccc(O[C@H]2c3ccccc3C[C@@H]2N2CCCCCC2)cc1` (racemic) [Example 464, 4-(rac-trans-(1,2)-2-azepan-1-ylindan-1-yloxy)benzenesulfonamide] the IC50 was less than 1000 nM.
Work on `N[C@@H]1CCCN([C@H]2CCc3ccccc3[C@@H]2Oc2ccc3oc(=O)sc3c2)C1` (racemic) [Example 578, 5-[rac-trans-(1,2)-2-((R)-3-aminopiperidin-1-yl)-1,2,3,4-tetrahydronaphthalen-1-yloxy]benzo[1,3]oxathiol-2-one] yielded an inhibition at 10 µM of 20 to 50%.
`Clc1cnccc1O[C@H]1c2ccccc2C[C@@H]1CN1CCOCC1` (racemic) [Example 486, 4-[1-(3-chloropyridin-4-yloxy)indan-2-ylmethyl]morpholine] gave an inhibition at 10 µM of 20 to 50%.
`Cc1nnc(C)n1-c1ccc(O[C@H]2c3cc(Cl)cc(Cl)c3C[C@@H]2N2CC[C@@H](O)C2)cc1` [Example 133, (R)-1-{trans-(1S,2S)-4,6-dichloro-1-[4-(3,5-dimethyl-[1,2,4]triazol-4-yl)phenoxy]indan-2-yl}pyrrolidin-3-ol] gave an IC50 of less than 1000 nM.
For `Cc1nnc(C)n1-c1ccc(O[C@H]2c3cc(F)cc(F)c3C[C@@H]2N2CC[C@@H](O)C2)c(F)c1` [Example 110, (R)-1-{(1S,2S)-1-[4-(3,5-dimethyl-[1,2,4]triazol-4-yl)-2-fluorophenoxy]-4,6-difluoroindan-2-yl}pyrrolidin-3-ol], the IC50 was less than 1000 nM.
For `N[C@H]1CCCN([C@H]2CCc3ccccc3[C@@H]2Oc2ccc(F)c3cccnc23)C1` (racemic) [Example 188, (S)-1-[rac-trans-(1,2)-1-(5-fluoroquinolin-8-yloxy)-1,2,3,4-tetrahydronaphthalen-2-yl]piperidin-3-ylamine], the IC50 was 1000 to 10000 nM.
`CN(C)Cc1ccc(O[C@H]2c3ccccc3CC[C@@H]2N2CCC[C@@H](N)C2)cc1` (racemic) [Example 67, (R)-1-[rac-trans-(1,2)-1-(4-dimethylaminomethylphenoxy)-1,2,3,4-tetrahydronaphthalen-2-yl]piperidin-3-ylamine] gave an inhibition at 10 µM of 20 to 50%.
`O=C1CCCN1c1ccc(O[C@H]2c3cc(Cl)cc(Cl)c3C[C@@H]2N2CCCC2)cc1` [Example 260, 1-[4-((1S,2S)-4,6-dichloro-2-pyrrolidin-1-ylindan-1-yloxy)phenyl]pyrrolidin-2-one] gave an IC50 of 1000 to 10000 nM.
`CC(=O)Nc1cccc(O[C@H]2c3ccc(Cl)cc3C[C@@H]2N2CCCC2)c1` (racemic) [Example 655, N-[3-(rac-trans-(1,2)-5-chloro-2-pyrrolidin-1-ylindan-1-yloxy)phenyl]acetamide] showed an IC50 of 1000 to 10000 nM.
Work on `Cn1ccn(-c2ccc(Cl)c(O[C@H]3c4cc(F)cc(F)c4C[C@@H]3N3CC[C@@H](O)C3)c2)c1=O` [Example 338, 1-{4-chloro-3-[(1S,2S)-4,6-difluoro-2-((R)-3-hydroxypyrrolidin-1-yl)indan-1-yloxy]phenyl}-3-methyl-1,3-dihydroimidazol-2-one] yielded an IC50 of 1000 to 10000 nM.
`NC1CCN([C@@H]2Cc3ccccc3[C@H]2Oc2ccc(S(N)(=O)=O)c(Cl)c2Cl)C1` (mixture of isomers) [Example 542, 4-[rac-trans-(1,2)-2-(3-aminopyrrolidin-1-yl)indan-1-yloxy]-2,3-dichlorobenzenesulfonamide] gave an IC50 of less than 1000 nM.
With `Cc1nnc(C)n1-c1ccc(O[C@H]2c3cc(Cl)cc(Cl)c3C[C@@H]2N(C)CCN(C)C)c(F)c1` [Example 726, N-{trans-(1S,2S)-4,6-Dichloro-1-[4-(3,5-dimethyl-[1,2,4]triazol-4-yl)-2-fluoro-phenoxy]-indan-2-yl}-N,N′,N′-trimethyl-ethane-1,2-diamine] the IC50 was less than 1000 nM.
`N[C@@H]1CCCN([C@H]2Cc3c(Cl)cc(Cl)cc3[C@@H]2Oc2ccc(F)cc2-c2cc[nH]n2)C1` [Example 113, (R)-1-{(1S,2S)-4,6-dichloro-1-[4-fluoro-2-(1H-pyrazol-3-yl)phenoxy]indan-2-yl}piperidin-3-ylamine] showed an IC50 of less than 1000 nM.
`N#Cc1ccc(O[C@@H]2c3ccccc3C[C@H]2N2CCC(CN)C2)c(Cl)c1` (mixture of isomers) [Example 541, 4-[rac-trans-(1,2)-2-(3-aminomethylpyrrolidin-1-yl)indan-1-yloxy]-3-chlorobenzonitrile] gave an IC50 of 1000 to 10000 nM.
`CS(=O)(=O)c1ccc(O[C@H]2c3cc(Cl)cc(Cl)c3C[C@@H]2N2CC3C[C@H]2CN3)cc1` [Example 209, (S)-2-[trans-(1S,2S)-4,6-dichloro-1-(4-methanesulfonylphenoxy)indan-2-yl]-2,5-diazabicyclo[2.2.1]heptane] gave an IC50 of less than 1000 nM.
For `COc1cc(Cl)ccc1O[C@H]1c2ccccc2CC[C@@H]1N1CCC[C@@H](N)C1` (racemic) [Example 64, (R)-1-[rac-trans-(1,2)-1-(4-chloro-2-methoxyphenoxy)-1,2,3,4-tetrahydronaphthalen-2-yl]piperidin-3-ylamine], the inhibition at 10 µM was 20 to 50%.
Work on `N[C@H]1CCCN([C@H]2CCc3ccccc3[C@@H]2Oc2cccc3[nH]nnc23)C1` (racemic) [Example 147, (S)-1-[rac-trans-(1,2)-1-(1H-benzotriazol-4-yloxy)-1,2,3,4-tetrahydronaphthalen-2-yl]piperidin-3-ylamine] yielded an IC50 of less than 1000 nM.
Molecule `O=C1OCCN1c1cccc(O[C@H]2c3ccccc3C[C@@H]2N2CCCC2)c1` (racemic) [Example 409, 3-[3-(rac-trans-(1,2)-2-pyrrolidin-1-ylindan-1-yloxy)phenyl]oxazolidin-2-one] has an IC50 of less than 1000 nM.
`Cc1ccc(O[C@H]2c3ccccc3CC[C@@H]2N2CCC[C@@H](N)C2)c(Br)c1` (racemic) [Example 35, (R)-1-[rac-trans-(1,2)-1-(2-bromo-4-methylphenoxy)-1,2,3,4-tetrahydronaphthalen-2-yl]piperidin-3-ylamine] gave an inhibition at 10 µM of 20 to 50%.
For `N#Cc1ccc(O[C@H]2c3ccccc3CC[C@@H]2N2CCC[C@@H](N)C2)c(F)c1` (racemic) [Example 515, 4-[rac-trans-(1,2)-2-((R)-3-aminopiperidin-1-yl)-1,2,3,4-tetrahydronaphthalen-1-yloxy]-3-fluorobenzonitrile], the IC50 was 1000 to 10000 nM.
Molecule `c1ccc2c(c1)C[C@H](N1CCCC1)[C@H]2Oc1cccc2cccnc12` (racemic) [Example 595, 8-(rac-trans-(1,2)-2-pyrrolidin-1-ylindan-1-yloxy)quinoline] has an IC50 of 1000 to 10000 nM.
`Cc1nnc(C)n1-c1ccc(O[C@H]2c3ccccc3C(C)(C)[C@@H]2N2CCCC2)cc1` (racemic) [Example 497, 4-[4-(rac-trans-(1,2)-3,3-dimethyl-2-pyrrolidin-1-ylindan-1-yloxy)phenyl]-3,5-dimethyl-4H-[1,2,4]triazole] was tested, and the inhibition at 10 µM was 20 to 50%.
Work on `COCCN1CCCN([C@H]2Cc3c(Cl)cc(Cl)cc3[C@@H]2Oc2ccc(-n3c(C)nnc3C)cc2)CC1` [Example 348, 1-{trans-(1S,2S)-4,6-dichloro-1-[4-(3,5-dimethyl-[1,2,4]triazol-4-yl)phenoxy]indan-2-yl}-4-(2-methoxyethyl)-[1,4]diazepane] yielded an IC50 of less than 1000 nM.
`Clc1cc(Cl)c2c(c1)[C@H](Oc1ccc(-n3cncn3)cc1)[C@@H](N1CCNCC1)C2` (racemic) [Example 276, 1-[rac-trans-(1,2)-4,6-dichloro-1-(4-[1,2,4]triazol-1-ylphenoxy)indan-2-yl]piperazine] showed an IC50 of less than 1000 nM.
In the case of `N[C@@H]1CCCN([C@H]2CCc3ccccc3[C@@H]2Oc2ccccc2OC(F)(F)F)C1` (racemic) [Example 50, (R)-1-[rac-trans-(1,2)-1-(2-trifluoromethoxyphenoxy)-1,2,3,4-tetrahydronaphthalen-2-yl]piperidin-3-ylamine], the inhibition at 10 µM is reported as 20 to 50%.
Work on `Cc1nc(C)c(-c2ccc(O[C@H]3c4cc(Cl)cc(Cl)c4C[C@@H]3N3CC[C@@H](O)C3)cc2)s1` [Example 125, (R)-1-{trans-(1S,2S)-4,6-dichloro-1-[4-(2,4-dimethyl-thiazol-5-yl)phenoxy]indan-2-yl}pyrrolidin-3-ol] yielded an inhibition at 10 µM of 20 to 50%.
